# Columns and labels:
# Type in all cases: biochemical
# [1] = biological target: AKT (Homo sapiens, UniProt P31749); test: RBC HotSpot kinase assay (33P-ATP, P81 filter-binding), AKT; settings: biochemical kinase inhibition; read-out: AKT IC50
# In short: (§1)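 Hepes pH 7.5/MgCl2/EGTA/Brij35/BSA/Na3VO4/DTT buffer, cofactors per kinase; cpd acoustically dispensed, 20 min preinc RT; start w/ 33P-ATP, 2 h RT; P81 filter readout; 10-pt singlet IC50.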
# [2] = biological target: T1, LATS1 (Homo sapiens, UniProt O95835); test: RBC HotSpot kinase assay (33P-ATP, P81 filter-binding), LATS1; settings: biochemical kinase inhibition; read-out: LATS1 IC50
# T1 sequence (O95835 1-1130): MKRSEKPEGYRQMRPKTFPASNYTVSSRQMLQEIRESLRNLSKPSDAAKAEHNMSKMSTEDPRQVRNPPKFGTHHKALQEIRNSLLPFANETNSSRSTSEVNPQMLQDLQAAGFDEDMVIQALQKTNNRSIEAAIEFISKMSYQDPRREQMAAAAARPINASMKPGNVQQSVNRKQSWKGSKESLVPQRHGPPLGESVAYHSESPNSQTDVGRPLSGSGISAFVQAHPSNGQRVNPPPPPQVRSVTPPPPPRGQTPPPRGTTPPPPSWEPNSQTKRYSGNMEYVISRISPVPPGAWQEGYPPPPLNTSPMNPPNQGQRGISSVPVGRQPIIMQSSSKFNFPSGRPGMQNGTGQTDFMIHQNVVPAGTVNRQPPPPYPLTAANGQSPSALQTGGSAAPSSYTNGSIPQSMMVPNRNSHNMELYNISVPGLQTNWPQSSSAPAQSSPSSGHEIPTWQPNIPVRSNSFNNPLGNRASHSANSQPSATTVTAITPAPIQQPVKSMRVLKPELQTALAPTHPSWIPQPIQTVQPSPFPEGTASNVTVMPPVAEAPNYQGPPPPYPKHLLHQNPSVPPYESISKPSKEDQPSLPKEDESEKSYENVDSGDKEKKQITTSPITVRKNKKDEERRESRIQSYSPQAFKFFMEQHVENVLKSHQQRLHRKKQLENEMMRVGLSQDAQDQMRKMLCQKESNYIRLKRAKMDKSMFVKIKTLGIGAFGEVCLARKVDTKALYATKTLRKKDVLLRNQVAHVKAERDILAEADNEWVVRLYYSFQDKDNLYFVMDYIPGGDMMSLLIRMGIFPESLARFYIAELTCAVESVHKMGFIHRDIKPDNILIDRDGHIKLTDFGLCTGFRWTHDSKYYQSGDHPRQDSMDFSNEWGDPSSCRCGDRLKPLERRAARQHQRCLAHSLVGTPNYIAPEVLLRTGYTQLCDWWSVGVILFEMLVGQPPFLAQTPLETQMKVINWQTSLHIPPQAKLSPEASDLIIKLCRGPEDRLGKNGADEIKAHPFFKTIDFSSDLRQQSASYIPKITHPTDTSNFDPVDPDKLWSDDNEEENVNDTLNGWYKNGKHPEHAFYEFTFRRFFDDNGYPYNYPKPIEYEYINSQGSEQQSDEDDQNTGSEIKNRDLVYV
# In short: as §1
# [3] = biological target: T2, LATS2 (Homo sapiens, UniProt Q9NRM7); test: RBC HotSpot kinase assay (33P-ATP, P81 filter-binding), LATS2; settings: biochemical kinase inhibition; read-out: LATS2 IC50
# T2 sequence (Q9NRM7 1-1088): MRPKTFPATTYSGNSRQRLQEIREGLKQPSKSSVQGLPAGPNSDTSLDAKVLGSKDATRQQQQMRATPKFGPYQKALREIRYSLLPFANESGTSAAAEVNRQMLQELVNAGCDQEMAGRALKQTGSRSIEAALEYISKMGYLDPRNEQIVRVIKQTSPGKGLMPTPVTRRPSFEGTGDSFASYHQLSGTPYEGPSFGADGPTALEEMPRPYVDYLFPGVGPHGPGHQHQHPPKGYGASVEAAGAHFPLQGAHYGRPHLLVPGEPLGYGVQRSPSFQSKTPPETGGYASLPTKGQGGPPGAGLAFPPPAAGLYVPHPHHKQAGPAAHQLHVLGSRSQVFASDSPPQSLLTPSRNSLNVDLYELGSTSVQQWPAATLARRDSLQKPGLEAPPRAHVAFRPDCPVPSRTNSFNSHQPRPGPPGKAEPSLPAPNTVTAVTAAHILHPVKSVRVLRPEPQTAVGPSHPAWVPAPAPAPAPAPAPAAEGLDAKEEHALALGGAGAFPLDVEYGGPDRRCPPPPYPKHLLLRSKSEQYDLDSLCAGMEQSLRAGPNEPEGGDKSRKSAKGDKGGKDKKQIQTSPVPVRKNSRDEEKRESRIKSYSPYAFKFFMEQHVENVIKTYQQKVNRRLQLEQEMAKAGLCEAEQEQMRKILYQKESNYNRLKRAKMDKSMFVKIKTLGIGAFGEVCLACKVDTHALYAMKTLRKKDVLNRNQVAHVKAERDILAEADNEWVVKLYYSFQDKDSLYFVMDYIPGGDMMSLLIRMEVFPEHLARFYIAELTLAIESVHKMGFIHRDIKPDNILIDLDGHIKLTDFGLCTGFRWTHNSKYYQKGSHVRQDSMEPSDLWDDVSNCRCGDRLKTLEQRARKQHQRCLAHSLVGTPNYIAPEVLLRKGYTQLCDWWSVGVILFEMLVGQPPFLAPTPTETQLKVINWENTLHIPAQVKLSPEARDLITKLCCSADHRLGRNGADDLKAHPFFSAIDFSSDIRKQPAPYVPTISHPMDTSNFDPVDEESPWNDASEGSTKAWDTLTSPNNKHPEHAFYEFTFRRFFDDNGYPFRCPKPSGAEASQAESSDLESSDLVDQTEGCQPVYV
# In short: as §1
# Chain of AKT (P31749 whole entry): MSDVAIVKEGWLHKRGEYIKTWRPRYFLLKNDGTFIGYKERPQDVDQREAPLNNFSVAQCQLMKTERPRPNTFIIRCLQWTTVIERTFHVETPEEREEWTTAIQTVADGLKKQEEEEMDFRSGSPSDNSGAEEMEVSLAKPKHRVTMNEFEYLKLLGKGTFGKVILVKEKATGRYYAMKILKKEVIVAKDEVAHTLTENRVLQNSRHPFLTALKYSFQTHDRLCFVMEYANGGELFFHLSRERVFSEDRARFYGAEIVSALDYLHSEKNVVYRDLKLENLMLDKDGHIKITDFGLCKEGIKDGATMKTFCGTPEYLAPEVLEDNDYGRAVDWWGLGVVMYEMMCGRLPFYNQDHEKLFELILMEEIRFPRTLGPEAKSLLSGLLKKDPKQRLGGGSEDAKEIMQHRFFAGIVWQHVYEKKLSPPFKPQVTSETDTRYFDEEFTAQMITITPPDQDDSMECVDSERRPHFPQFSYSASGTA
smiles,measurement,setting,value
"Cc1cc(-c2ccnc3[nH]cc(C#N)c23)ccc1[C@@]1(O)[C@H](C)CN(C2CCS(=O)(=O)CC2)C[C@@H]1C [Compound 2003, 4-(4-((3S,4s,5R)-1-(1,1-dioxidotetrahydro-2H-thiopyran-4-yl)-4-hydroxy-3,5-dimethylpiperidin-4-yl)-3-methylphenyl)-1H-pyrrolo[2,3-b]pyridine-3-carbonitrile]",IC50,[1],12.1 nM
same,IC50,[2],5.6 nM
same,IC50,[3],2.6 nM
